Legend:
[1] = molecular target: ERK1 (Homo sapiens, UniProt P27361); test: ERK1 and 2 Enzymatic Inhibition Assay (ERK1); assay type: biochemical; settings: 10 assay concentrations 2×10^−6 M to 6×10^−11 M, 1% DMSO
Description: (§1) ERK1 and 2 Enzymatic Inhibition Assay
(§2) For the Ki determination assay, 200 μM stock solutions of compounds were subjected to a serial, semi-logarithmic dilution using 100% DMSO as a solvent. 10 distinct concentrations were prepared, with a dilution endpoint of 6×10^−9 M in 100% DMSO. 100% DMSO was used as a control. 10 μL from each of the serial dilutions were aliquoted into separate wells of a 96-well plate and 90 μL of water were added to each of those wells. The plate was shaken thoroughly, and 5 μL from each of the plate's wells were transferred into wells of the assay plate. The final volume of wells in the assay plate was 50 μL. All compounds were tested at 10 assay concentrations in the range from 2×10^−6 M to 6×10^−11 M. The final DMSO concentration in the wells of the assay plate was 1% in all cases.

[2] = system: drug-resistant cell lines of Table 4; test: Cell line growth retardation assay, average over resistant cohort; assay type: cell-based, Human; settings: Homo sapiens, 144 h; geometric mean of IC50s over resistant cohort (Table 4); 6 days growth; read-out: AvgRes IC50
Description: (§3) Cell Line Growth Retardation Assay
(§4) Cells were seeded at densities of 1,000-5,000 cells per well in 48-well tissue culture plates. After a 24 h rest period, cells were treated with compound at 10 μM, 2 μM, 0.4 μM, 0.08 μM, 0.016 μM, and 0.0032 μM. A group of cells were treated with the vehicle in which the compound was prepared and served as a control. The cells were grown in the presence of compounds for 6 days and were counted on day 0 and day 6. All cell counting was performed using a Synentec Cellavista plate imager. […] Growth inhibition was calculated as a ratio of cell population doublings in the presence of compound versus the absence of compound. […] IC50 values for each compound were calculated by fitting curves to data points from each dose-response assay using the Proc NLIN function in SAS for Windows version 9.2 (SAS Institute, Inc.).
(§5) Designation of Sensitivity and Resistant Cohorts and Calculation of Average IC50 Values
(§6) Human cancer cell lines were grouped as “sensitive” or “resistant” to ERK1 inhibition based on whether their growth was retarded by KO-947 (i.e., 1,5,6,8-tetrahydro-6-(phenylmethyl)-3-(4-pyridinyl)-7H-pyrazolo[4,3-g]quinazolin-7-one) and SCH772984 (i.e., (3R)-1-[2-oxo-2-[4-[4-(2-pyrimidinyl)phenyl]-1-piperazinyl]ethyl]-N-[3-(4-pyridinyl)-1H-indazol-5-yl]-3-pyrrolidinecarboxamide) (data not shown; see Table 4). These sensitive and resistant cohorts were interrogated for response to each compound, and IC50s were calculated for each cell line using the same technique described above. Average IC50s for the sensitive and resistant cohorts were calculated as geometric means of the group.

[3] = molecular target: ERK2 (Homo sapiens, UniProt P28482); test: ERK1 and 2 Enzymatic Inhibition Assay (ERK2); assay type: biochemical; settings: 10 assay concentrations 2×10^−6 M to 6×10^−11 M, 1% DMSO
Description: as §1, §2

[4] = Mouse Maximum Tolerated Dose Studies; assay type: in vivo; settings: mice, oral gavage (PO)
Description: Mouse Maximum Tolerated Dose Studies
For maximum tolerated dose (MTD) determination studies, non-tumor bearing CD-1 athymic nude mice were randomized into […] treatment groups (5 mice per group) and treated with either 400, 300, 200, 100, 50 or 25 mg/kg of compound by daily PO, or 200, 100, 50, 25, or 12.5 mg/kg of compound twice daily PO. Mice were weighed daily and % body weight loss was calculated relative to individual mouse body weights at the start of treatment. […] MTD was determined as the highest dose at which a mean body weight loss of <10% over 14 days of dosing was observed.

[5] = system: phosphorylated RSK (pRSK) in M275 cells; test: Western Blot for Total and pRSK; assay type: cell-based, human; settings: treatment for 4.5 hours and 24 hours, 200 nM
Description: Western Blot for Total and pRSK
For Western blot assays (see FIG. 14), protein lysates were obtained from either the M275 or M202 human melanoma cancer cell lines. For assay, cells were plated on 10 cm dishes and treated 24 hours later with either 200 nM of test compound in DMSO or DMSO control for 4.5 or 24 hours. After the treatment period, cells were washed twice in ice-cold PBS and lysed for 15 minutes at 4° C. using a mild lysis buffer (Cell Signaling Technology) containing a mixture of protease inhibitors (Calbiochem) and 1 mmol/L phenlymethylsulfonlyfluoride. Insoluble material was removed by centrifugation at 10,000×g for 10 minutes. Protein concentration of each sample was quantified by BCA (Pierce), resolved by SDS-PAGE, and transferred to nitrocellulose membranes (iBlot, Invitrogen Life Technology). Total (32D7, Cell Signaling Technologies) and phosphorylated ([…]; D1E9, Cell Signaling Technology) RSK protein were detected using the indicated antibody clones. All blots were repeated in duplicate and relative levels of individual proteins compared to a loading control (α-tubulin) (11H10; Cell Signaling Technology) were quantitated using the ECL Plus chemifluorescent reagent (Amersham Biosciences) and the ChemiDoc™ Touch Imaging System (BioRad).

[6] = Compound metabolic stability in hepatocytes; assay type: in vitro ADME; settings: hepatocytes from mice and rats (species not given); class symbols without key
Description: The metabolic stability of compounds was determined in hepatocytes from mice and rats. Compounds were diluted to 5 μM in Williams' Medium E from 10 mM stock solutions. 10 μL of each compound was aliquoted into a well of a 96-well plate and reactions were started by aliquoting 40 μL of a 625,000 cells/mL suspension into each well. The plate was incubated at 37° C. with 5% CO2. At each corresponding time point, the reaction was stopped by quenching with ACN containing internal standards (IS) at a 1:3. Plates were shaken at 500 rpm for 10 min, and then centrifuged at 3,220×g for 20 minutes. Supernatants were transferred to another 96-well plate containing a dilution solution. Supernatants were analyzed by LC/MS/MS.
Compound half-life was estimated using the following equation: % Remaining Compound=Peak Area Ratios of Tested Compound vs. Internal Standard at End Point/Peak Area Ratios of Tested Compound vs. Internal Standard at Start Point Mouse Xenograft Studies

[7] = system: drug-sensitive cell lines of Table 4; test: Cell line growth retardation assay, average over sensitive cohort; assay type: cell-based, Human; settings: Homo sapiens, 144 h; geometric mean of IC50s over sensitive cohort (Table 4); 6 days growth; read-out: AvgSens IC50
Description: as §3, §4, §5, §6

Sequence of ERK1 (P27361 whole entry): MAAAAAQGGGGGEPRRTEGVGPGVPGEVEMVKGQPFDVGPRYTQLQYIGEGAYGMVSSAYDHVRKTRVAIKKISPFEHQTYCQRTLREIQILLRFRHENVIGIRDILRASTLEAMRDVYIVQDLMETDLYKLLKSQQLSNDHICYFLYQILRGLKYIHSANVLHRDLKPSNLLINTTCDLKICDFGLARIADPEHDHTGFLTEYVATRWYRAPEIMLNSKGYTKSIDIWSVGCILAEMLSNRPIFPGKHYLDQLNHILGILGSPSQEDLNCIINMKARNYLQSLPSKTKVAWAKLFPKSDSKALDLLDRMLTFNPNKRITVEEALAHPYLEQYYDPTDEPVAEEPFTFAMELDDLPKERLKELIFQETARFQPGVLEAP
Sequence of ERK2 (P28482 whole entry): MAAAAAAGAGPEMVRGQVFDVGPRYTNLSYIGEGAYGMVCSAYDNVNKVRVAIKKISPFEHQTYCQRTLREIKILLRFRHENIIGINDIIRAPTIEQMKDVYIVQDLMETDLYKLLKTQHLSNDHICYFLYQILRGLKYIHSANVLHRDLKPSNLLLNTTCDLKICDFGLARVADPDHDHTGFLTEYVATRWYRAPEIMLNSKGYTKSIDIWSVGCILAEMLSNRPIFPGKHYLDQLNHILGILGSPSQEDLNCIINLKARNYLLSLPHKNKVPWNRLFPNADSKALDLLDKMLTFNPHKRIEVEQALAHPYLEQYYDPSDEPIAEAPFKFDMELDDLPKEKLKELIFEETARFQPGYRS

| Structure (SMILES) | Kd [1] [nM] | Kd [3] [nM] | half-life at 1 µM [6] [min] | IC50 [2] [nM] | maximum tolerated QD dose ([4]; daily (QD)) [mg/kg] | maximum tolerated BID dose ([4]; twice daily (BID)) [mg/kg] | level of phosphorylated RSK (pRSK) [5] | IC50 [7] [nM] |
| --- | --- | --- | --- | --- | --- | --- | --- | --- |
| CC(NC(=O)c1ncc(-c2c[nH]c3ncc(N4CCOCC4)cc23)cn1)c1ccccc1 (stereo in doubt) [Compound 6, (R)-5-(5-morpholino-1H-pyrrolo[2,3-b]pyridin-3-yl)-N-(1-phenylethyl)pyrimidine-2-carboxamide] | ≤ 10 | ≤ 10 | > 25 | > 500 | 200 | 100 | decrease | ≤ 250 |
| CC(NC(=O)c1ncc(-c2c[nH]c3ncc(N4CCOCC4)cc23)cn1)c1ccccc1 (stereo in doubt) [Compound 22, (S)-5-(5-morpholino-1H-pyrrolo[2,3-b]pyridin-3-yl)-N-(1-phenylethyl)pyrimidine-2-carboxamide] | > 100 | > 100 | > 25 | > 500 | – | – | – | > 500 |
| O=C(c1ncc(-c2c[nH]c3ncc(N4CCOCC4)cc23)cn1)N1CCCC1c1ccccn1 (stereo not shown) [Compound 26, (5-(5-morpholino-1H-pyrrolo[2,3-b]pyridin-3-yl)pyrimidin-2-yl)(2-(pyridin-2-yl)pyrrolidin-1-yl)methanone] | 11 to 100 | > 100 | < 25 | > 500 | – | – | – | > 500 |
| O=C(NCCc1ccccc1)c1ncc(-c2c[nH]c3ncc(N4CCOCC4)cc23)cn1 [Compound 11, 5-(5-morpholino-1H-pyrrolo[2,3-b]pyridin-3-yl)-N-phenethylpyrimidine-2-carboxamide] | ≤ 10 | ≤ 10 | < 25 | > 500 | – | – | – | 251 to 500 |
| c1ccc([C@@H]2CN=C(c3ncc(-c4c[nH]c5ncc(N6CCOCC6)cc45)cn3)O2)cc1 [Compound 29, (R)-4-(3-(2-(5-phenyl-4,5-dihydrooxazol-2-yl)pyrimidin-5-yl)-1H-pyrrolo[2,3-b]pyridin-5-yl)morpholine] | 11 to 100 | 11 to 100 | > 25 | > 500 | – | – | – | > 500 |

Second part, led by results:

| Kd [1] [nM] | Kd [3] [nM] | half-life at 1 µM [6] [min] | Structure (SMILES) | IC50 [2] [nM] | maximum tolerated QD dose ([4]; daily (QD)) [mg/kg] | maximum tolerated BID dose ([4]; twice daily (BID)) [mg/kg] | level of phosphorylated RSK (pRSK) [5] | IC50 [7] [nM] |
| --- | --- | --- | --- | --- | --- | --- | --- | --- |
| ≤ 10 | ≤ 10 | > 25 | C[C@@H](NC(=O)c1ncc(-c2c[nH]c3ncc(N4CCOCC4)cc23)cn1)c1cccc(Cl)c1 [Compound 20, (R)—N-(1-(3-chlorophenyl)ethyl)-5-(5-morpholino-1H-pyrrolo[2,3-b]pyridin-3-yl)pyrimidine-2-carboxamide] | > 500 | – | – | – | ≤ 250 |
| ≤ 10 | ≤ 10 | > 25 | c1ccc([C@H]2COC(c3ncc(-c4c[nH]c5ncc(N6CCOCC6)cc45)cn3)=N2)cc1 [Compound 27, (S)-4-(3-(2-(4-phenyl-4,5-dihydrooxazol-2-yl)pyrimidin-5-yl)-1H-pyrrolo[2,3-b]pyridin-5-yl)morpholine] | > 500 | – | – | – | > 500 |
| ≤ 10 | ≤ 10 | < 25 | C[C@H](Cc1ccccc1)NC(=O)c1ncc(-c2c[nH]c3ncc(N4CCOCC4)cc23)cn1 [Compound 31, (R)-5-(5-morpholino-1H-pyrrolo[2,3-b]pyridin-3-yl)-N-(1-phenylpropan-2-yl)pyrimidine-2-carboxamide] | > 500 | – | – | – | > 500 |
| > 100 | > 100 | > 25 | c1ccc([C@@H]2COC(c3ncc(-c4c[nH]c5ncc(N6CCOCC6)cc45)cn3)=N2)cc1 [Compound 28, (R)-4-(3-(2-(4-phenyl-4,5-dihydrooxazol-2-yl)pyrimidin-5-yl)-1H-pyrrolo[2,3-b]pyridin-5-yl)morpholine] | > 500 | – | – | – | > 500 |
| ≤ 10 | ≤ 10 | > 25 | Cc1cccc(C(C)NC(=O)c2ncc(-c3c[nH]c4ncc(N5CCOCC5)cc34)cn2)c1 (stereo in doubt) [Compound 50, (R)-5-(5-morpholino-1H-pyrrolo[2,3-b]pyridin-3-yl)-N-(1-(m-tolyl)ethyl)pyrimidine-2-carboxamide] | > 500 | – | – | – | ≤ 250 |
| ≤ 10 | ≤ 10 | > 25 | C[C@@H](NC(=O)c1ncc(-c2c[nH]c3ncc(N4CCOCC4)cc23)cn1)c1ccc(Cl)cc1 [Compound 25, (R)—N-(1-(4-chlorophenyl)ethyl)-5-(5-morpholino-1H-pyrrolo[2,3-b]pyridin-3-yl)pyrimidine-2-carboxamide] | > 500 | – | – | – | > 500 |
